Measured values: paper PMC6416898, “Prediction of Toxoplasma gondii virulence factor ROP18 competitive inhibitors by virtual screening” (Parasites & Vectors, 2019)
Where two headings read alike, the source gives them in different places.

Target: T1, ROP18 (187–554 aa) kinase domain (Toxoplasma gondii, UniProt Q2PAY2)
T1 construct: kinase domain 187-554 of ROP18; His6-GST-MBP-Gb1 fusion from plasmid pETDL4.0-ROP18, E. coli Rosetta 2, amylose beads; 4JRN is the docking structure (187-554), not solved here
Experiment: HTRF KinEASE kinase assay with biotinylated peptide substrate
Assay type: biochemical

T1 sequence (Q2PAY2 187-554): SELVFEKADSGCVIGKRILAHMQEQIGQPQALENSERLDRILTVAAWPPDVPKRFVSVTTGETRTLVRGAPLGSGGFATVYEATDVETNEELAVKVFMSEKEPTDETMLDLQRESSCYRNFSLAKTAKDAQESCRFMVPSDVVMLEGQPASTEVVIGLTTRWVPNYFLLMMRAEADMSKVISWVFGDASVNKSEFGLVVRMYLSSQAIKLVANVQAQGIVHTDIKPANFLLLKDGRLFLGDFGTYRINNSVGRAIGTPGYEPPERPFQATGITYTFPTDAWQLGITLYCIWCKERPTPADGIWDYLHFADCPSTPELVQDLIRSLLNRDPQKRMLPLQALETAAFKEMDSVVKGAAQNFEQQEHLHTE

Q: For `C=CCN1C(=O)NC(=O)/C(=C/c2cc(Br)c(OCC(=O)O)c(OC)c2)C1=O` [compound 1], which IC50 is on record?
A: 220 nM

Q: `O=C(O)CCCCCN1C(=O)c2c(Br)c(Br)c(Br)c(Br)c2C1=O` [compound 11, AK-918/11642046] was tested. Which IC50 (read-out: IC50) did it give?
A: 41 nM
